Data as given in PubChem BioAssay AID2060510 (Molecular Pharmacology Branch, DTP, NCI, 2025).

Tested on: 439559-082-T-J2-PDC spheroids viability
Experiment: Anticancer human tumor 439559-082-T-J2-PDC patient-derived colon adenocarcinoma cell line growth inhibition [GQUAD]
Conditions: for IC50: curve of first compound; for viability, T/C: stronger effect = lower value
Source text: DNA G-quadruplex Stabilizer Agents in Combinations in Complex Spheroids
A high-throughput screen of multi-cell type tumor spheroids was designed to identify active combinations of DNA G-quadruplex stabilizer agents and targeted small molecules. Complex spheroids include a stromal component modeled by human endothelial cells (HUVEC) and fibroblasts modeled by human mesenchymal stem cells (MSCs). The concentration ranges selected for each drug and investigational agent were based upon clinically achievable concentrations if the clinical Cmax of the agent was known.
Compounds. The drugs and investigational agents: pidnarulex (CX-5461; NSC782164), APTO-253 (NSC789042), BRACO-19 (NSC847499), peposertib (NSC802822), ceralasertib (NSC780249), elimusertib (NSC800525), camonsertib (NSC841442), AZD-1390 (NSC803789), olaparib (NSC753686), talazoparib (NSC767125), ART-558 (NSC835418), sotorasib (NSC818433), MRTX-1133 (NSC836407), SN-38 (NSC673596), topotecan (NSC609699), etoposide (NSC141540), doxorubicin (NSC123127), gemcitabine (NSC613327), 5-fluorouracil (NSC19893), paclitaxel (NSC125973), vemurafenib (NSC761431), panobinostat (NSC761190), R-306465 (JNJ-16241199; NSC773264), adavosertib (NSC754352), TP-3654 (NSC805149), carboplatin (NSC241240), KSQ-4279 (NSC840948), and staurosporine (NSC755774) were obtained from the National Cancer Institute (NCI) Developmental Therapeutics Program Chemical Repository (34). The FDA-approved anticancer drug set is available from the NCI Developmental Therapeutics Program. […] The stock solutions were prepared in dimethyl sulfoxide (DMSO, Sigma-Aldrich, St. Louis, MO, cat. D2650) at 800-fold the tested concentration and stored at -70 degrees C prior to their use. All drugs and investigational agents were tested over a range starting from a high concentration at or near the clinical Cmax and decreasing in half-log increments. If the clinical Cmax for an agent had not been determined, the highest concentration tested was 10 microM.
2.3 Cell Culture. All cells were maintained in an incubator at 37 degrees C and 5% CO2 with 95% humidity. The PDC lines were cultured according to standard operating procedures established by the NCI PDMR. All PDCs were thawed and cultured in Matrigel-coated flasks prepared with a working solution of 1X Ham's F-12 nutrient mix, without supplementation (Invitrogen, cat. 11765054), 100 U/mL penicillin-streptomycin (Invitrogen, cat. 15140122), and 2.5% Matrigel (Corning Inc., cat. 354248) for the first three passages. The 857933-349-R-J2-PDC line was cultured in 6C/Colon 1B media, which includes advanced DMEM/F-12 (Thermo Fisher Scientific, cat. 12634028), 10 mM HEPES (Thermo Fisher Scientific, cat. 15630080), 1X GlutaMAX supplement (Thermo Fisher Scientific, cat. 35050061), 0.1 mg/mL primocin (InvivoGen, cat. ant-pm-2), 10% defined fetal bovine serum, heat inactivated (HyClone Laboratories Inc., cat. SH30070.03HI), 50% L-WRN conditioned media (ATCC, cat. CRL-3276), 1.25 mM N-Acetyl-L-cysteine (Sigma-Aldrich, cat. A9165), 10 mM nicotinamide (Sigma-Aldrich, cat. N0636), 1X B-27 supplement (Thermo Fisher Scientific, cat. 17504044), 1X N-2 supplement (Thermo Fisher Scientific, cat. 17502048), 10 microM Y-27632 dihydrochloride (Tocris Bioscience, cat. 1254), and 50 ng/mL human EGF recombinant protein (Thermo Fisher Scientific, cat. PHG0311). The 485176-168-R4-J1-PDC line was cultured in Panc media, which includes all 6C/Colon 1B media components plus 100 ng/mL human FGF-10 (Thermo Fisher Scientific, cat. 100-26), 500 nM SB-431542 (Selleckchem, cat. S1067), and gastrin (Tocris, cat. 3006).
[…]

[1] = second compound 0.0316 µM, first compound 0.0316 µM
[2] = second compound 0.0316 µM, first compound 0.316 µM
[3] = second compound 0.1 µM, first compound 0.0316 µM
[4] = second compound 0.1 µM, first compound 0.316 µM
[5] = second compound 0.316 µM, first compound 0.0316 µM
[6] = second compound 0.316 µM, first compound 0.316 µM
[7] = second compound 1 µM, first compound 0.0316 µM
[8] = second compound 1 µM, first compound 0.316 µM
[9] = second compound 3.16 µM, first compound 0.0316 µM
[10] = second compound 3.16 µM, first compound 0.316 µM
[11] = second compound 10 µM, first compound 0.0316 µM
[12] = second compound 10 µM, first compound 0.316 µM
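Note: spheroids exposed to the agents for 7 days before readout.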
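Throughout, for viability, T/C: percent of luminescence signal in DMSO vehicle wells taken as 100% viability.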

CCc1c2c(nc3ccc(O)cc13)-c1cc3c(c(=O)n1C2)COC(=O)[C@]3(O)CC + Cc1[nH]c2ccc(F)cc2c1-c1nc2c3cccnc3c3ncccc3c2[nH]1
IC50 (second compound 0.0316 µM): 223 nM | IC50 (second compound 0.1 µM): > 316 nM | IC50 (second compound 0.316 µM): > 316 nM | IC50 (second compound 1 µM): 227 nM | IC50 (second compound 3.16 µM): 85.4 nM | IC50 (second compound 10 µM): 167 nM | viability, T/C (second compound 0.0316 µM, first compound 0.000999 µM): 93.4% | viability, T/C (second compound 0.0316 µM, first compound 0.00316 µM): 90.6% | viability, T/C (second compound 0.0316 µM, first compound 0.00999 µM): 88.5% | viability, T/C [1]: 78.6% | viability, T/C (second compound 0.0316 µM, first compound 0.0999 µM): 63.2% | viability, T/C [2]: 44.2% | viability, T/C (second compound 0.1 µM, first compound 0.000999 µM): 102% | viability, T/C (second compound 0.1 µM, first compound 0.00316 µM): 93.1% | viability, T/C (second compound 0.1 µM, first compound 0.00999 µM): 73.2% | viability, T/C [3]: 73.8% | viability, T/C (second compound 0.1 µM, first compound 0.0999 µM): 65.8% | viability, T/C [4]: 49.3% | viability, T/C (second compound 0.316 µM, first compound 0.000999 µM): 109% | viability, T/C (second compound 0.316 µM, first compound 0.00316 µM): 97.1% | viability, T/C (second compound 0.316 µM, first compound 0.00999 µM): 84.5% | viability, T/C [5]: 76.4% | viability, T/C (second compound 0.316 µM, first compound 0.0999 µM): 70.2% | viability, T/C [6]: 51.1% | viability, T/C (second compound 1 µM, first compound 0.000999 µM): 90.9% | viability, T/C (second compound 1 µM, first compound 0.00316 µM): 79.8% | viability, T/C (second compound 1 µM, first compound 0.00999 µM): 77.8% | viability, T/C [7]: 70.7% | viability, T/C (second compound 1 µM, first compound 0.0999 µM): 65.6% | viability, T/C [8]: 43.6% | viability, T/C (second compound 3.16 µM, first compound 0.000999 µM): 89.1% | viability, T/C (second compound 3.16 µM, first compound 0.00316 µM): 74.3% | viability, T/C (second compound 3.16 µM, first compound 0.00999 µM): 62.9% | viability, T/C [9]: 65.6% | viability, T/C (second compound 3.16 µM, first compound 0.0999 µM): 51.9% | viability, T/C [10]: 32.5% | viability, T/C (second compound 10 µM, first compound 0.000999 µM): 73% | viability, T/C (second compound 10 µM, first compound 0.00316 µM): 75.3% | viability, T/C (second compound 10 µM, first compound 0.00999 µM): 65.6% | viability, T/C [11]: 60.7% | viability, T/C (second compound 10 µM, first compound 0.0999 µM): 63.1% | viability, T/C [12]: 39%

CC(C)(O)C1CCC(Nc2ccc3ncc(-c4cccc(C(F)(F)F)c4)n3n2)CC1 (centres undefined) + CN(C)c1ccc(Nc2c3ccc(NC(=O)CCN4CCCC4)cc3nc3cc(NC(=O)CCN4CCCC4)ccc23)cc1
IC50 (second compound 0.0316 µM): 1600 nM | IC50 (second compound 0.1 µM): 1650 nM | IC50 (second compound 0.316 µM): 1820 nM | IC50 (second compound 1 µM): 1660 nM | IC50 (second compound 3.16 µM): 1780 nM | IC50 (second compound 10 µM): 1580 nM | viability, T/C [1]: 92.7% | viability, T/C (second compound 0.0316 µM, first compound 0.1 µM): 94.7% | viability, T/C [2]: 94% | viability, T/C (second compound 0.0316 µM, first compound 1 µM): 78.1% | viability, T/C (second compound 0.0316 µM, first compound 3.16 µM): 8.9% | viability, T/C (second compound 0.0316 µM, first compound 10 µM): 9% | viability, T/C [3]: 117% | viability, T/C (second compound 0.1 µM, first compound 0.1 µM): 111% | viability, T/C [4]: 108% | viability, T/C (second compound 0.1 µM, first compound 1 µM): 77.5% | viability, T/C (second compound 0.1 µM, first compound 3.16 µM): 13.9% | viability, T/C (second compound 0.1 µM, first compound 10 µM): 10.1% | viability, T/C [5]: 104% | viability, T/C (second compound 0.316 µM, first compound 0.1 µM): 96.9% | viability, T/C [6]: 91.8% | viability, T/C (second compound 0.316 µM, first compound 1 µM): 90.3% | viability, T/C (second compound 0.316 µM, first compound 3.16 µM): 12.7% | viability, T/C (second compound 0.316 µM, first compound 10 µM): 10.6% | viability, T/C [7]: 98.8% | viability, T/C (second compound 1 µM, first compound 0.1 µM): 101% | viability, T/C [8]: 107% | viability, T/C (second compound 1 µM, first compound 1 µM): 82.1% | viability, T/C (second compound 1 µM, first compound 3.16 µM): 7.17% | viability, T/C (second compound 1 µM, first compound 10 µM): 11.9% | viability, T/C [9]: 98.8% | viability, T/C (second compound 3.16 µM, first compound 0.1 µM): 101% | viability, T/C [10]: 103% | viability, T/C (second compound 3.16 µM, first compound 1 µM): 89% | viability, T/C (second compound 3.16 µM, first compound 3.16 µM): 7.84% | viability, T/C (second compound 3.16 µM, first compound 10 µM): 13.6% | viability, T/C [11]: 100% | viability, T/C (second compound 10 µM, first compound 0.1 µM): 110% | viability, T/C [12]: 109% | viability, T/C (second compound 10 µM, first compound 1 µM): 77.1% | viability, T/C (second compound 10 µM, first compound 3.16 µM): 9.39% | viability, T/C (second compound 10 µM, first compound 10 µM): 7.34%
